Data taken from patent publication US8178506B2, “Oligomeric compounds and compositions for use in modulation of small non-coding RNAs” (Regulus Therapeutics Inc., priority 2003, dated 2012).
In the oligonucleotide strings, read from the 5' end, every base follows the letter of its sugar. An asterisk marks phosphorothioate; unmarked linkages are phosphodiester. Other units and linkages are bracketed, terminal groups are in braces. A string of capitals states the bases alone. e = 2'-O-(2-methoxyethyl) (MOE); [5mC] = 5-methylcytosine

Tested on: mir-15a pri-miRNA
Test: mir-15a pri-miRNA expression in T47D cells (real-time RT-PCR)
Assay type: cell-based, human
Conditions: real-time RT-PCR
Summary of the method: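 T47D cells transfected with 100 nM uniform 2′-MOE or gapmer oligomers. Pri-miRNA measured by real-time RT-PCR with a mir-15a-specific primer/probe set, normalized to 5.8S rRNA, expressed as percentage of untreated control RNA levels.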

327901 (antisense eT*eG*eA*eG*e[5mC]*eT*eA*e[5mC]*eA*eG*eT*eG*e[5mC]*eT*eT*e[5mC]*eA*eT*e[5mC]*eT*e[5mC]*eA) [compound 327901]
mir-15a pri-miRNA expression % UTC: 132 % UTC

327951 (antisense e[5mC]*eA*e[5mC]*eA*eA*eA*e[5mC]*e[5mC]*eA*eT*eT*eA*eT*eG*eT*eG*e[5mC]*eT*eG*e[5mC]*eT*eA) [compound 327951]
mir-15a pri-miRNA expression % UTC: 713 % UTC
